The values below come from US12076357B2, “Preparations containing berry extracts for use in the prophylaxis and/or treatment of viral infections caused by Paramyxoviridae” (Evonik Operations GmbH, priority 2019, dated 2024).

This test relates to GFP-encoding measles virus. Put plainly: Measles virus replication, infected cells counted with PerkinElmer Ensight system (Part II). Particulars: 75 μg/mL, quadruplets.

Molecules are shown by their SMILES.

Experimental: Vero-Slam cells were incubated with decreasing concentration of the solubilized test compounds. All concentrations were analyzed on three independent six-well plates or by independent six replicates on a black 96well plate (PerkinElmer). Cells were infected with GFP-encoding wild-type measles virus and incubated for two days. […] Part II: Two days after infection measles virus-infected cells and GFP expressing cells were directly counted using the PerkinElmer Ensight system with optical cell culture plates. The instrument was controlled by manual counting. Viral titers were calculated as infectious particles per mL.
However, in contrast to the previous experiments, infected cells were counted with the PerkinElmer Ensight system, since this system allows to quantify changes in viral titers on single cell level.
However, only non-toxic compound concentrations were applied.
The cells were subsequently infected with GFP-encoding measles virus, and GFP expressing cells were quantified with the Perkin Elmer Ensight reader. All infections were performed in triplicate assays.

For the molecule `C[C@@H]1O[C@@H](OC[C@H]2O[C@@H](Oc3cc4c(O)cc(O)cc4[o+]c3-c3cc(O)c(O)c(O)c3)[C@H](O)[C@@H](O)[C@@H]2O)[C@H](O)[C@H](O)[C@H]1O` [D3R, delphinidin 3-rutinoside], the “number of infected cells” value is “reduced the number of infected cells”.
